# In paper PMC3355305, “Localized Dimerization and Nucleoid Binding Drive Gradient Formation by the Bacterial Cell Division Inhibitor MipZ” (Molecular Cell, 2012):
# Where a chain is given by its changes, count along the chain named. pKd: −log10 of the molar value.
# How the values were obtained:
# WT (MipZ) [1] = target: T1, WT (MipZ) (Caulobacter vibrioides, UniProt Q9A6C9); experiment: Stopped-flow FRET transient kinetics of mant-ADP binding to MipZ (excitation 297 nm, 360 nm cut-off) at 30 °C in 50 mM Hepes/NaOH pH 7.2, 50 mM KCl, 10 mM MgCl2, 1 mM β-mercaptoethanol; KD calculated as koff/kon, with koff from displacement by excess unlabeled nucleotide.
# T1 construct: hexahistidine-tagged, full length, overproduced in E. coli Rosetta2(DE3)pLysS
# T1 sequence (Q9A6C9 1-278): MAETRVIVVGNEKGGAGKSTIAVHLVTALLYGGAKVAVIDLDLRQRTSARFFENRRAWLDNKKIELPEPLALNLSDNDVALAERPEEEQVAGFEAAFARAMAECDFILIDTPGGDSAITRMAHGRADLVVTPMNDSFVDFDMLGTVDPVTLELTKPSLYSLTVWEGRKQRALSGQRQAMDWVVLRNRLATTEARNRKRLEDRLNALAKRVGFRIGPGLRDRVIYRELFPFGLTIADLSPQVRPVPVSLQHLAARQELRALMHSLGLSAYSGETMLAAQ
# Source text: (§1) Once released from the dimeric complex, MipZ monomers must undergo nucleotide exchange to enter the next reaction cycle (Figure 2A). To clarify the requirements for the exchange reaction, we studied the nucleotide binding kinetics of MipZ by monitoring its interaction with methylanthraniloyl (mant)-labeled ADP and ATP analogs (Figure S3). Since the mant group blocks dimer formation, our measurements specifically focused on the initial nucleotide-binding step without interference from subsequent reactions.
# (§2) Figure S3. Steady-state and transient kinetic analysis of nucleotide binding to MipZ, Related to Table 2.
# (§3) (A) Fluorescence emission spectra of mant-ATP. MipZ (1 µM) and/or mant-ATP (60 µM) were mixed in buffer BC containing no (+ Mg2+) or 10 mM (- Mg2+) EDTA. Emission spectra were recorded in a PC1 photon-counting spectrofluorimeter (ISS) using fluorescence resonance energy transfer (FRET) and an excitation wavelength of 290 nm.
# (§4) (B) Association of MipZ with mant nucleotides.
# (§5) (data not shown), necessitating the use of ADP and ATP analogues that carried a fluorescent methylanthraniloyl (mant) group attached to the 2'- or 3'-hydroxy group of the ribose moiety. Due to the bulkiness of the mant group and a critical role of these hydroxy groups in MipZ dimerization, the modified nucleotides are predicted to block dimer formation, consistent with their failure to be hydrolyzed by MipZ or mediate MipZ self-association in the SPR assay (data not shown). This circumstance allowed us to focus the measurements on the initial nucleotide binding step without interference from subsequent reactions.
# (§6) Interaction of the mant group with the protein surface led to a marked increase in fluorescence (panel A). Consistent with the easy accessibility of the nucleotide-binding site and the lack of major conformational changes, the transients recorded after rapid mixing of MipZ with mant nucleotides could be fitted to single-exponential equations, indicating single-step binding reactions.
# (§7) Shown is a typical curve representing the change in mant fluorescence upon binding of mant-ATP (30 µM) to MipZ (1 µM).
# (§8) Fitting of the data yielded a pseudo-first order rate constant (kobs) of 4.7 s-1. […]
# (§9) determining the second-order rate constant of the association reaction. Shown is a representative graph in which the kobs values measured for mant-ATP were plotted against the corresponding mant-ATP concentrations. […]
# (§10) (D) Dissociation of mant nucleotides from MipZ. In order to determine the dissociation rate constants (koff), we monitored the displacement of mant-labeled nucleotides from MipZ by an excess of unlabeled nucleotide. […] Shown is a typical curve representing the change in mant fluorescence upon dissociation of mant-ATP (30 µM) from MipZ (1 µM) in the presence of 2 mM ATP. […]
# D42A [2] = target: T2, D42A (Caulobacter vibrioides, UniProt Q9A6C9, D42A); experiment: as above
# T2 construct: gene mipZ; hexahistidine-tagged, full length, overproduced in E. coli Rosetta2(DE3)pLysS
# T2 sequence (Q9A6C9 1-278 D42A): T1 sequence (Q9A6C9 1-278) with D42A
# Source text: as §1, §2, §3, §4, §5, §6, §7, §8, §9, §10
# G14V [3] = target: T3, G14V (Caulobacter vibrioides, UniProt Q9A6C9, G14V); experiment: as above
# T3 construct: gene mipZ; hexahistidine-tagged, full length, overproduced in E. coli Rosetta2(DE3)pLysS; constitutively monomeric
# T3 sequence (Q9A6C9 1-278 G14V): T1 sequence (Q9A6C9 1-278) with G14V
# Source text: as §1, §2, §3, §4, §5, §6, §7, §8, §9, §10
# K13A [4] = target: T4, K13A (Caulobacter vibrioides, UniProt Q9A6C9, K13A); experiment: as above
# T4 construct: gene mipZ; hexahistidine-tagged, full length, overproduced in E. coli Rosetta2(DE3)pLysS; constitutively monomeric
# T4 sequence (Q9A6C9 1-278 K13A): T1 sequence (Q9A6C9 1-278) with K13A
# Source text: as §1, §2, §3, §4, §5, §6, §7, §8, §9, §10
# WT (MipZ) [5] = target: T1, WT (MipZ); experiment: Stopped-flow FRET transient kinetics of mant-ATP binding to MipZ (excitation 297 nm, 360 nm cut-off) at 30 °C in 50 mM Hepes/NaOH pH 7.2, 50 mM KCl, 10 mM MgCl2, 1 mM β-mercaptoethanol; KD calculated as koff/kon, with koff from displacement by excess unlabeled nucleotide.
# Source text: as §1, §2, §3, §4, §5, §6, §7
# (§11) Fitting of the data yielded a pseudo-first order rate constant (kobs) of 4.7 s-1.
# (§12) (C) Determination of the second-order association rate constants (kon). The pseudo-first order rate constants for the association of […]
# (§13) determining the second-order rate constant of the association reaction. Shown is a representative graph in which the kobs values measured for mant-ATP were plotted against the corresponding mant-ATP concentrations. Fitting of the data to the linear function kobs=kon[mant-ATP]+koff yielded a value of 6.8 x 104 M-1s-1 for kon.
# (§14) (D) Dissociation of mant nucleotides from MipZ. In order to determine the dissociation rate constants (koff), we monitored the displacement of mant-labeled nucleotides from MipZ by an excess of unlabeled nucleotide. All transients obtained could be fitted to single-exponential functions. Shown is a typical curve representing the change in mant fluorescence upon dissociation of mant-ATP (30 µM) from MipZ (1 µM) in the presence of 2 mM ATP. […]
# K18Q = target: T5, K18Q (Caulobacter vibrioides, UniProt Q9A6C9, K18Q); experiment: as above
# T5 construct: gene mipZ; hexahistidine-tagged, full length, overproduced in E. coli Rosetta2(DE3)pLysS; constitutively monomeric
# T5 sequence (Q9A6C9 1-278 K18Q): T1 sequence (Q9A6C9 1-278) with K18Q
# Source text: as §1, §2, §3, §4, §5, §6, §7, §11, §12, §13, §14
# D42A [6] = target: T2, D42A; experiment: as above
# Source text: as §1, §2, §3, §4, §5, §6, §7, §11, §12, §13, §14
# G14V [7] = target: T3, G14V; experiment: as above
# Source text: as §1, §2, §3, §4, §5, §6, §7, §11, §12, §13, §14
# K13A [8] = target: T4, K13A; experiment: as above
# Source text: as §1, §2, §3, §4, §5, §6, §7, §11, §12, §13, §14
compound,measurement,setting,value
"CNc1ccccc1C(=O)O[C@H]1[C@@H](O)[C@H](n2cnc3c(N)ncnc32)O[C@@H]1COP(=O)(O)OP(=O)(O)O [mant-ADP, 2'/3'-O-methylanthraniloyl-ADP (methylanthraniloyl-labeled ADP)]",pKd,WT (MipZ) [1],4.59
same,pKd,D42A [2],4.16
same,pKd,G14V [3],5.35
same,pKd,K13A [4],4.39
"CNc1ccccc1C(=O)O[C@H]1[C@@H](O)[C@H](n2cnc3c(N)ncnc32)O[C@@H]1CO[P@@](=O)(O)O[P@](=O)(O)OP(=O)(O)O [mant-ATP, 2'/3'-O-methylanthraniloyl-ATP (methylanthraniloyl-labeled ATP)]",pKd,WT (MipZ) [5],4.51
same,pKd,K18Q,3.92
same,pKd,D42A [6],4.24
same,pKd,G14V [7],5.89
same,pKd,K13A [8],4.42
